These results are taken from PubChem BioAssay AID330 (DTP/NCI, 2004).

Where “and” joins values, the source holds several entries; their conditions need not be identical. Identical values can stand only once. Toxic doses and inconclusive results are not listed.

For this test, the system named is P388 leukemia ip, CD2F1 mice, survival T/C. Description: NCI In Vivo Anticancer Drug Screen. Data for tumor model P388 Leukemia (intraperitoneal) in CD2F1 (CDF1) mice. Conditions: endpoint: median survival time, higher = longer survival. In short, it runs like this: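 Mice carrying the transplanted tumor received test compound or vehicle. Survival was recorded in each group, and the value is the treated-group measurement divided by that of the vehicle-treated control group.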

Setting [1] is: dose: 50.0 mg/kg/injection, schedule: Q01DX005 (ip), vehicle: saline with Tween-80.
The mark [2] stands for this setting: dose: 100.0 mg/kg/injection, schedule: Q01DX005 (ip), vehicle: saline with Tween-80.
The mark [3] stands for this setting: dose: 200.0 mg/kg/injection, schedule: Q01DX005 (ip), vehicle: saline with Tween-80.
[4] abbreviates: dose: 60.0 mg/kg/injection, schedule: Q01DX005 (ip), vehicle: saline with Tween-80.
[5] abbreviates: dose: 120.0 mg/kg/injection, schedule: Q01DX005 (ip), vehicle: saline with Tween-80.
The mark [6] stands for this setting: dose: 240.0 mg/kg/injection, schedule: Q01DX005 (ip), vehicle: saline with Tween-80.
[7] abbreviates: dose: 50.0 mg/kg/injection, schedule: Q01DX009 (ip), vehicle: saline.
Setting [8] is: dose: 100.0 mg/kg/injection, schedule: Q01DX009 (ip), vehicle: saline.
Setting [9] is: dose: 200.0 mg/kg/injection, schedule: Q01DX009 (ip), vehicle: saline.
[10] abbreviates: dose: 25.0 mg/kg/injection, schedule: Q01DX005 (ip), vehicle: Klucel (hydroxypropylcellulose) (HPC).
Setting [11] is: dose: 50.0 mg/kg/injection, schedule: Q01DX005 (ip), vehicle: Klucel (hydroxypropylcellulose) (HPC).
[12] abbreviates: dose: 100.0 mg/kg/injection, schedule: Q01DX005 (ip), vehicle: Klucel (hydroxypropylcellulose) (HPC).
Where [13] appears, read: dose: 200.0 mg/kg/injection, schedule: Q01DX005 (ip), vehicle: Klucel (hydroxypropylcellulose) (HPC).
Where [14] appears, read: dose: 100.0 mg/kg/injection, schedule: Q04DX002 (ip), vehicle: Klucel (hydroxypropylcellulose) (HPC).
Where [15] appears, read: dose: 200.0 mg/kg/injection, schedule: Q04DX002 (ip), vehicle: Klucel (hydroxypropylcellulose) (HPC).
Setting [16] is: dose: 400.0 mg/kg/injection, schedule: Q04DX002 (ip), vehicle: Klucel (hydroxypropylcellulose) (HPC).
Where [17] appears, read: dose: 6.25 mg/kg/injection, schedule: Q01DX009 (ip), vehicle: saline with Tween-80.
Where [18] appears, read: dose: 50.0 mg/kg/injection, schedule: Q01DX009 (ip), vehicle: Klucel (hydroxypropylcellulose) (HPC).
Where [19] appears, read: dose: 100.0 mg/kg/injection, schedule: Q01DX009 (ip), vehicle: Klucel (hydroxypropylcellulose) (HPC).
[20] abbreviates: dose: 12.5 mg/kg/injection, schedule: Q01DX005 (ip), vehicle: Klucel (hydroxypropylcellulose) (HPC).

As for `OCc1c(-c2ccccc2)c(-c2ccccc2)c2n1CCC2`, the T/C under setting [1] is 103 % of control, the T/C under setting [2] was 92 % of control and the T/C under setting [3] is 99 % of control.

As to `O=C(O)CSCC(=O)Nc1cc(C(F)(F)F)ccc1Cl`, the T/C runs as follows: under setting [4], 95 % of control; under setting [5], 100 % of control; under setting [6], 96 % of control.

As to `CC(C)(CN)SCc1ccccc1`, the T/C by setting is: (dose: 25.0 mg/kg/injection, schedule: Q01DX009 (ip), vehicle: saline) 100 % of control; (dose: 25.0 mg/kg/injection, schedule: Q04DX003 (ip), vehicle: saline) 100 % of control; under setting [7], 100 % of control; (dose: 50.0 mg/kg/injection, schedule: Q04DX003 (ip), vehicle: saline) 86 % of control; under setting [8], 100 % of control; (dose: 100.0 mg/kg/injection, schedule: Q04DX003 (ip), vehicle: saline) 90 % of control.

As to `Cc1ccc(N/N=c2\c3nc4ccccc4nc2n(-c2ccccc2C)c(=S)n3-c2ccc(C)cc2)cc1`, the T/C was 93 % of control under setting [4] and 96 % of control under setting [5].

Regarding `O=c1ccocc1CN1CCCCC1`, the T/C runs as follows: under setting [7], 100 % of control; under setting [8], 99 % of control; under setting [9], 99 % of control.

On to `CCOC(=O)c1c(-c2ccccc2)nn2c1COC(=O)C2`, for which the T/C under setting [1] is 103 % of control, the T/C under setting [2] was 99 % of control and the T/C under setting [3] is 98 % of control.

Turning to `COc1cc2c(c(OC)c1OC)-c1cc3c(cc1C(OC1OC(COC(C)=O)C(OC(C)=O)C(OC(C)=O)C1OC(C)=O)C1COC(=O)C1C2)OCO3` (configuration not stated), the T/C is, setting by setting: (dose: 18.75 mg/kg/injection, schedule: Q01DX005 (ip), vehicle: Klucel (hydroxypropylcellulose) (HPC)) 93 % of control; (dose: 37.5 mg/kg/injection, schedule: Q01DX005 (ip), vehicle: Klucel (hydroxypropylcellulose) (HPC)) 93 % of control; (dose: 75.0 mg/kg/injection, schedule: Q01DX005 (ip), vehicle: Klucel (hydroxypropylcellulose) (HPC)) 93 % of control; (dose: 150.0 mg/kg/injection, schedule: Q01DX005 (ip), vehicle: Klucel (hydroxypropylcellulose) (HPC)) 88 % of control.

`CC(=O)N1C(=O)c2ccccc2NC1(C)c1ccncc1` (configuration not stated): the T/C reads like this: under setting [10], 100 % of control; under setting [11], 101 % of control; under setting [12], 107 % of control; under setting [13], 106 % of control.

With `N#CC1=CN(Cc2ccc3c(c2)OCO3)C=CC1`, the T/C was 100 % of control (dose: 50.0 mg/kg/injection, schedule: Q01DX005 (ip), vehicle: Klucel + Tween-80); 98 % of control (dose: 100.0 mg/kg/injection, schedule: Q01DX005 (ip), vehicle: Klucel + Tween-80); 92 % of control (dose: 200.0 mg/kg/injection, schedule: Q01DX005 (ip), vehicle: Klucel + Tween-80).

Regarding `O=C(NC1=C(N2CC2)C(=O)C(NC(=O)OCCO)=C(N2CC2)C1=O)OCCO`, the T/C was 174 % of control (dose: 0.18 mg/kg/injection, schedule: Q01DX009 (ip), vehicle: saline); 170 % of control (dose: 0.39 mg/kg/injection, schedule: Q01DX009 (ip), vehicle: saline); 218 % of control (dose: 0.75 mg/kg/injection, schedule: Q01DX009 (ip), vehicle: saline); 169 % of control and 175 % of control (dose: 1.5 mg/kg/injection, schedule: Q01DX009 (ip), vehicle: saline); 202 % of control and 211 % of control (dose: 3.0 mg/kg/injection, schedule: Q01DX009 (ip), vehicle: saline); 239 % of control and 258 % of control (dose: 6.0 mg/kg/injection, schedule: Q01DX009 (ip), vehicle: saline).

Turning to `Cc1cc(N)c(C)c2c1[nH]c1ccc(Br)cc12`, the T/C is, setting by setting: under setting [1], 94 % of control; under setting [2], 93 % of control; under setting [3], 89 % of control.

`CC(C)(C)c1ccc(C(O)(C(F)(F)F)C(F)(F)F)cc1`: the T/C reads like this: under setting [14], 94 % of control; under setting [15], 94 % of control; under setting [16], 109 % of control.

`C=C(C)c1nc(N)nc(NC)n1`: the T/C is, setting by setting: under setting [14], 98 % of control; under setting [15], 107 % of control; under setting [16], 98 % of control.

As to `CC1=NN(C2=NS(=O)(=O)c3ccccc3N2C)C(=O)C1`, the T/C runs as follows: under setting [4], 86 % of control; under setting [5], 90 % of control; under setting [6], 90 % of control.

With `CCO/C=C1/N=C(Cc2ccccc2)OC1=O`, the T/C by setting is: (dose: 60.0 mg/kg/injection, schedule: Q01DX005 (ip), vehicle: saline + Tween-80 + alcohol) 100 % of control; (dose: 120.0 mg/kg/injection, schedule: Q01DX005 (ip), vehicle: saline + Tween-80 + alcohol) 94 % of control.

Regarding `CCOC(=O)/C=C(/C)Sc1cc(O)c2ccccc2c1O`, the T/C under setting [17] is 100 % of control.

On to `COc1cc2cccc(O)c2cc1OC`, for which the T/C reads like this: (dose: 12.5 mg/kg/injection, schedule: Q01DX009 (ip), vehicle: other) 90 % of control; (dose: 25.0 mg/kg/injection, schedule: Q01DX009 (ip), vehicle: other) 106 % of control; (dose: 50.0 mg/kg/injection, schedule: Q01DX009 (ip), vehicle: other) 92 % of control; (dose: 200.0 mg/kg/injection, schedule: Q01DX009 (ip), vehicle: other) 90 % of control.

On to `CN1C(=O)N(CCCl)C(=O)C(C)(C2=CCCCC2)C1=O` (configuration not stated), for which the T/C was 92 % of control under setting [18]; 92 % of control under setting [19]; 90 % of control (dose: 200.0 mg/kg/injection, schedule: Q01DX009 (ip), vehicle: Klucel (hydroxypropylcellulose) (HPC)).

With `O=S(=O)(OCCF)c1cc(Cl)c(Cl)cc1Cl`, the T/C is, setting by setting: under setting [20], 98 % of control; under setting [10], 98 % of control; under setting [11], 89 % of control.

Turning to `C(CCSCCCCSCCCCCC1=NCCN1)CCC1=NCCN1`, the T/C reads like this: under setting [11], 94 % of control; under setting [12], 95 % of control; under setting [13], 99 % of control.

As for `CN(C)c1ccc(C(=C2C=CC(=Nc3ccccc3)c3ccccc32)c2ccc(N(C)C)cc2)cc1`, the T/C is, setting by setting: (dose: 3.12 mg/kg/injection, schedule: Q01DX005 (ip), vehicle: Klucel (hydroxypropylcellulose) (HPC)) 100 % of control and 101 % of control; (dose: 6.25 mg/kg/injection, schedule: Q01DX005 (ip), vehicle: Klucel (hydroxypropylcellulose) (HPC)) 100 % of control and 104 % of control and 112 % of control; under setting [20], 111 % of control and 114 % of control and 120 % of control; under setting [10], 115 % of control and 118 % of control.

As to `N#CC(C#N)=C(O)/C(=C/c1ccccc1[N+](=O)[O-])NC(=O)c1ccccc1`, the T/C was 106 % of control under setting [4], 104 % of control under setting [5] and 92 % of control under setting [6].

With `CCCCCc1cc(O)c2c(c1)OC(C)(CCC=C(C)C)C=C2` (configuration not stated), the T/C under setting [17] was 100 % of control; the T/C (dose: 12.5 mg/kg/injection, schedule: Q01DX009 (ip), vehicle: saline with Tween-80) is 110 % of control; the T/C (dose: 25.0 mg/kg/injection, schedule: Q01DX009 (ip), vehicle: saline with Tween-80) was 109 % of control; the T/C (dose: 50.0 mg/kg/injection, schedule: Q01DX009 (ip), vehicle: saline with Tween-80) is 112 % of control.

Consider `CNNCCCCC(=O)NC(C)C`, for which the T/C runs as follows: (dose: 25.0 mg/kg/injection, schedule: Q01DX009 (ip), vehicle: Klucel (hydroxypropylcellulose) (HPC)) 97 % of control; under setting [18], 98 % of control; under setting [19], 97 % of control.

In the case of `C/C(=N\NC(=S)Nc1ccc([N+](=O)[O-])cc1S(=O)(=O)O)c1ccccn1`, the T/C was 103 % of control under setting [1], 106 % of control under setting [2] and 103 % of control under setting [3].

In the case of `CC(=O)CC(C)O` (configuration not stated), the T/C under setting [7] was 99 % of control, the T/C under setting [8] is 89 % of control and the T/C under setting [9] is 92 % of control.

As for `CCOC(=O)c1c(OC)c(-c2ccccc2)c(=O)n2c3ccccc3n(C)c12`, the T/C reads like this: under setting [4], 95 % of control; under setting [5], 88 % of control.
